This note sets out measurements from ChEMBL document CHEMBL5532637, “Antimicrobial activity of natural and semi-synthetic carbazole alkaloids” (Eur J Med Chem, 2023).

One test relates to Salmonella typhimurium. The test is described as follows: Antibacterial activity against Salmonella typhimurium TISTR 292 assessed as inhibition of bacterial growth by two-fold serial dilution method. It counts as functional, Salmonella enterica subsp. enterica serovar Typhimurium. The settings on record: Salmonella enterica.
In test [1] the test system is Staphylococcus aureus. The test is described as follows: Antibacterial activity against methicillin-resistant Staphylococcus aureus SK1 assessed as inhibition of bacterial growth by two-fold serial dilution method. It counts as functional.
For test [2], the system named is Staphylococcus aureus. Nature of the test: Antibacterial activity against Staphylococcus aureus TISTR 1466 assessed as inhibition of bacterial growth by two-fold serial dilution method. It counts as functional.
Test [3] has as its system Escherichia coli. Nature of the test: Antibacterial activity against Escherichia coli TISTR 780 assessed as inhibition of bacterial growth by two-fold serial dilution method. In kind it is functional.
The subject of test [4] is Staphylococcus epidermidis. Nature of the test: Antibacterial activity against Staphylococcus epidermidis assessed as zone of inhibition at 25 ug/ml. It counts as functional. The settings on record: read-out: IZ.
A further test relates to Proteus vulgaris. Nature of the test: Antibacterial activity against Proteus vulgaris assessed as zone of inhibition at 25 ug/ml. The following applies: read-out: IZ. It counts as functional.
Test [5] concerns Escherichia coli. Nature of the test: Antibacterial activity against Escherichia coli assessed as zone of inhibition at 25 ug/ml. It counts as functional. The settings on record: read-out: IZ.
The test system of test [6] is Bacillus subtilis. Nature of the test: Antibacterial activity against Bacillus subtilis assessed as inhibition of bacterial growth by agar well dilution assay. In kind it is functional.
Test [7] deals with Escherichia coli. The test is described as follows: Antibacterial activity against Escherichia coli assessed as inhibition of bacterial growth by agar well dilution assay. In kind it is functional.
The next test has as its system Pasteurella multocida. Nature of the test: Antibacterial activity against Pasteurella multocida assessed as inhibition of bacterial growth by agar well dilution assay. In kind it is functional.
Test [8] deals with Staphylococcus aureus. The test is described as follows: Antibacterial activity against Staphylococcus aureus assessed as inhibition of bacterial growth by agar well dilution assay. In kind it is functional.
Test [9] concerns Pseudomonas aeruginosa. Nature of the test: Antibacterial activity against Pseudomonas aeruginosa assessed as zone of inhibition incubated for 24 hrs by disk diffusion method. In kind it is functional. Background: Agar diffusion results depend on both activity and mobility in agar.
Test [10] has as its system Pseudomonas aeruginosa. The test is described as follows: Antibacterial activity against Pseudomonas aeruginosa assessed as inhibition of bacterial growth by broth microdilution method. In kind it is functional. On the technique in general: In broth dilution the organism is exposed to a series of concentrations in liquid medium.
In test [11] the test system is Staphylococcus aureus. Nature of the test: Antibacterial activity against Staphylococcus aureus assessed as inhibition of bacterial growth by broth microdilution method. It counts as functional.
In test [12] the test system is Escherichia coli. The test is described as follows: Antibacterial activity against Escherichia coli assessed as inhibition of bacterial growth by broth microdilution method. In kind it is functional.
Test [13] has as its system Klebsiella pneumoniae. The test is described as follows: Antibacterial activity against Klebsiella pneumoniae assessed as inhibition of bacterial growth by broth microdilution method. In kind it is functional.
Another test has as its system Micrococcus luteus. Nature of the test: Antimicrobial activity against Sarcina lutea assessed as inhibition of microbial growth incubated for 24 hrs by two-fold serial dilution assay. In kind it is functional.
For test [14], the system named is Escherichia coli. The test is described as follows: Antimicrobial activity against Escherichia coli ATCC 25922 assessed as inhibition of microbial growth incubated for 24 hrs by two-fold serial dilution assay. It counts as functional.
Test [15] has as its system Pseudomonas aeruginosa. The test is described as follows: Antimicrobial activity against Pseudomonas aeruginosa ATCC 27953 assessed as inhibition of microbial growth incubated for 24 hrs by two-fold serial dilution assay. It counts as functional.
Test [16] has as its system Klebsiella pneumoniae. Nature of the test: Antimicrobial activity against Klebsiella pneumoniae ATCC 13883 assessed as inhibition of microbial growth incubated for 24 hrs by two-fold serial dilution assay. It counts as functional.
Another test deals with Candida albicans. Nature of the test: Antimicrobial activity against Candida albicans NRRL Y-477 assessed as inhibition of microbial growth incubated for 48 hrs by two-fold serial dilution assay. It counts as functional.
In another test the test system is Priestia megaterium. The test is described as follows: Antimicrobial activity against Bacillus megaterium ATCC 9885 assessed as inhibition of microbial growth incubated for 24 hrs by two-fold serial dilution assay. It counts as functional.
The subject of test [17] is Bacillus subtilis. Nature of the test: Antimicrobial activity against Bacillus subtilis ATCC 6633 assessed as inhibition of microbial growth incubated for 24 hrs by two-fold serial dilution assay. It counts as functional.
For test [18], the system named is Staphylococcus aureus. The test is described as follows: Antimicrobial activity against Staphylococcus aureus ATCC 29213 assessed as inhibition of microbial growth incubated for 24 hrs by two-fold serial dilution assay. It counts as functional.
The test system of test [19] is Bacillus subtilis. Nature of the test: Antibacterial activity against Bacillus subtilis assessed as zone of inhibition by agar-disc diffusion method. In kind it is functional.
In test [20] the test system is Staphylococcus aureus. Nature of the test: Antibacterial activity against Staphylococcus aureus assessed as zone of inhibition by agar-disc diffusion method. It counts as functional.
The subject of test [21] is Staphylococcus aureus. Nature of the test: Antimicrobial activity against methicillin-resistant Staphylococcus aureus assessed as inhibition of microbial growth incubated for 18 hrs by agar diffusion method. It counts as functional.
For another test, the system named is Pythium. The test is described as follows: Antifungal activity against Pythium assessed as zone of inhibition incubated upto 9 days by disc diffusion assay. The following applies: time <= 9 day. In kind it is functional.
Test [22] concerns Staphylococcus aureus. The test is described as follows: Antibacterial activity against Staphylococcus aureus assessed as inhibition of bacterial growth incubated for 24 hrs by broth microdilution method. In kind it is functional.
For the next test, the system named is Shigella flexneri. Nature of the test: Antibacterial activity against Shigella flexneri assessed as inhibition of bacterial growth incubated for 24 hrs by broth microdilution method. It counts as functional.
For the next test, the system named is Vibrio cholerae. Nature of the test: Antibacterial activity against Vibrio cholerae assessed as inhibition of bacterial growth incubated for 24 hrs by broth microdilution method. In kind it is functional.
Test [23] deals with Staphylococcus aureus. The test is described as follows: Antibacterial activity against Staphylococcus aureus assessed as inhibition of bacterial growth. It counts as functional, organism-based.
The subject of test [24] is Staphylococcus aureus. Nature of the test: Antibacterial activity against Staphylococcus aureus assessed as inhibition of bacterial growth by broth dilution method. It counts as functional.

In brackets after ≈: the same amount, converted by molar mass. A value given as a limit tells only on which side of the number the result lay.

Regarding `COC(=O)c1cc(O)c2[nH]c3ccc(O)c(CC=C(C)C)c3c2c1`, the MIC with Salmonella typhimurium, with Staphylococcus aureus [1], with Staphylococcus aureus [2] and with Escherichia coli [3] was 64 µg/mL (≈ 197 µM) in each case.
With `CC1(C)C=Cc2c(ccc3[nH]c4ccc(C=O)cc4c23)O1`, the MIC in the test with Salmonella typhimurium, in the test on Staphylococcus aureus [1], in the test with Staphylococcus aureus [2] and in the test on Escherichia coli [3] was 64 µg/mL (≈ 231 µM) in each case.
With `Cc1cccc2c3c([nH]c12)C(=O)/C(=C/c1ccc(Br)cc1)CC3`, the zone of inhibition at 25 µg/mL (in test [4]; with Proteus vulgaris; in the test with Escherichia coli [5]) was 15 mm throughout.
With `C/C(=N/C(=S)C(=S)n1cc(CC(=O)O)c2ccccc21)C1CCCc2c1[nH]c1c([N+](=O)[O-])cc([N+](=O)[O-])cc21` (stereo not given), the MIC with Bacillus subtilis [6], in the test with Escherichia coli [7], in the test with Pasteurella multocida and in the test on Staphylococcus aureus [8] was 0.056 µg/mL (≈ 0.0994 µM) each time.
As for `C=CC(=C)c1c(C(=O)OC)cc(O)c2[nH]c3ccccc3c12`, the MIC with Staphylococcus aureus [1] and in the test on Staphylococcus aureus [2] was 4 µg/mL (≈ 13.6 µM) each time.
In the case of `CCOc1nc2c(c(-c3ccc(F)cc3)c1C(N)=O)CCc1c-2[nH]c2ccccc12`, the “inhibition zone (IZ)” value with Pseudomonas aeruginosa [9] is 2.1 cm.
Turning to `Cc1cc2c([nH]c3ccc(O)cc32)c2c1OC(C)(C)C=C2`, the MIC90 in the test with Pseudomonas aeruginosa [10] was above 100 µg/mL; in the test on Staphylococcus aureus [11], 3.12 µg/mL (≈ 11.2 µM); in the test with Escherichia coli [12], above 100 µg/mL; in the test on Klebsiella pneumoniae [13], 3.12 µg/mL (≈ 11.2 µM).
On to `C/C(=N\C(Cc1c[nH]cn1)C(=O)Oc1cc(C(=O)O)cc(O)c1O)C1CCCc2c1[nH]c1c([N+](=O)[O-])cc([N+](=O)[O-])cc21` (stereo not given), for which the minimum inhibitory concentration (MIC) in the test on Bacillus subtilis [6], in the test on Escherichia coli [7], with Pasteurella multocida and in the test with Staphylococcus aureus [8] was 0.056 µg/mL (≈ 0.0945 µM) throughout.
For the compound `CSC(=S)NNC(=O)c1ccc(-n2c3c(c4ccccc42)CCCC3)cc1`, the minimal inhibitory concentration (MIC) in the test on Micrococcus luteus, in the test with Escherichia coli [14], in the test with Pseudomonas aeruginosa [15], in the test with Klebsiella pneumoniae [16], in the test with Candida albicans and in the test on Priestia megaterium was 25 µg/mL throughout. For the same compound, the minimal inhibitory concentration (MIC) in the test with Bacillus subtilis [17] and in the test on Staphylococcus aureus [18] was 25 µg/mL throughout.
In the case of `O=C(O)c1cn(C2CC2)c2cc(N3CCNCC3)c(F)cc2c1=O` [CIPROFLOXACIN], the “inhibition zone (IZ)” value in the test on Bacillus subtilis [19] and in the test with Staphylococcus aureus [20] was 15 mm throughout.
For `C=C(C)C1Cc2c(cc(O)c3[nH]c4ccccc4c23)C(=O)O1` (stereo not given) [CLAUSAMINE A], the MIC with Staphylococcus aureus [1] was 8 µg/mL (≈ 27.3 µM); with Staphylococcus aureus [21] it was 64 µg/mL.
As to `C=C(C)C1Cc2c(cc(OC)c3[nH]c4ccccc4c23)C(=O)O1` (stereo not given) [CLAUSAMINE B], the MIC in the test with Staphylococcus aureus [1] is 0.25 µg/mL (≈ 0.813 µM).
Consider `COc1ccc2c(c1)[nH]c1cc(OC)c(C(=O)O)cc12` [CLAUSINE K], for which the “inhibition zone (IZ)” value with Pythium came out at 16.2 mm.
In the case of `COC(=O)c1cc2c(cc1OC)[nH]c1ccccc12` [CLAUSINE L], the “inhibition zone (IZ)” value in the test with Pythium turned out to be 10.2 mm.
In the case of `COc1cc(C=O)c(CC=C(C)C)c2c1[nH]c1ccccc12` [EKEBERGININE], the MIC with Staphylococcus aureus [22], in the test on Shigella flexneri and in the test on Vibrio cholerae was 32 µg/mL (≈ 109 µM) throughout.
On to `CC(C)=CCc1c(O)c(C=O)cc2c1[nH]c1ccccc12` [HEPTAPHYLLINE], for which the figures for the “inhibition zone (IZ)” value with Bacillus subtilis [19] and with Staphylococcus aureus [20] were 12 mm and 14 mm, respectively.
As for `NC[C@H]1O[C@H](O[C@H]2[C@H](O)[C@@H](O[C@H]3O[C@H](CO)[C@@H](O)[C@H](N)[C@H]3O)[C@H](N)C[C@@H]2N)[C@H](O)[C@@H](O)[C@@H]1O` [KANAMYCIN], the MIC90 with Staphylococcus aureus [11] and with Klebsiella pneumoniae [13] was 12.5 µg/mL (≈ 25.8 µM) each time.
As to `COc1ccc2[nH]c3c4c(c(C)cc3c2c1)OC(C)(C)C=C4` [KOENIMBINE], the IC50 in the test on Staphylococcus aureus [23] was 17 µM.
For the compound `CC1=CC(=O)c2[nH]c3ccccc3c2C1=O` [MURRAYAQUINONE A], in the test with Staphylococcus aureus [24], the minimum inhibitory concentration (MIC) amounted to 50 µg/mL (≈ 237 µM).

Usually MIC stands for the lowest concentration that inhibits growth of the organism. A word on the MIC90: it is an inhibitory concentration at the 90% level, which refers to growth in some studies and to a panel of isolates in others. In general, IC50 refers to the point on the concentration scale where inhibition reaches its midpoint.
